According to ChEMBL document CHEMBL1138637, “Discovery of potent pyrrolidone-based HIV-1 protease inhibitors with enhanced drug-like properties” (Bioorg Med Chem Lett, 2004):

What was measured:
[1] = target: T1, Human immunodeficiency virus type 1 protease (Human immunodeficiency virus 1, UniProt Q72874); experiment: Potency to inhibit HIV-1 protease
[2] = target: T1, Human immunodeficiency virus type 1 protease; experiment: Concentration required to in inhibit HIV-1 protease by 50%

SMILES | Ki [1] [nM] | IC50 [2] [nM]
O=C(NCCOCCO)c1cccc(C[C@H]2C[C@H](Cc3ccccc3)N(C[C@@H](O)C[C@@H](Cc3ccccc3)C(=O)N[C@@H]3c4ccccc4C[C@H]3O)C2=O)c1 | 0.24 | 
O=C(NC1c2ccccc2C[C@H]1O)[C@H](Cc1ccccc1)C[C@H](O)CN1C(=O)C(Cc2ccncc2)C[C@@H]1Cc1ccccc1 (stereo not given in full) | 0.31 | 
Nc1cccc(CC2C[C@H](Cc3ccccc3)N(C[C@@H](O)C[C@@H](Cc3ccccc3)C(=O)NC3c4ccccc4C[C@H]3O)C2=O)c1 (single isomer, unassigned; diastereomer 1) | 0.1 | 
N#Cc1cccc(CC2C[C@H](Cc3ccccc3)N(C[C@@H](O)C[C@@H](Cc3ccccc3)C(=O)NC3c4ccccc4C[C@H]3O)C2=O)c1 (single isomer, unassigned; diastereomer 1) | 0.05 | 
Nc1ccc(CC2C[C@H](Cc3ccccc3)N(C[C@@H](O)C[C@@H](Cc3ccccc3)C(=O)NC3c4ccccc4C[C@H]3O)C2=O)cc1 (stereo not given in full) | 2.3 | 
O=C(NCCN1CCOCC1)c1cccc(C[C@H]2C[C@H](Cc3ccccc3)N(C[C@@H](O)C[C@@H](Cc3ccccc3)C(=O)N[C@@H]3c4ccccc4C[C@H]3O)C2=O)c1 | 0.15 | 
COc1ccc(S(=O)(=O)N(CC2CCCC2)C[C@@H](O)CN2C(=O)C(Cc3ccccc3)OC[C@@H]2Cc2ccccc2)cc1 (stereo not given in full) |  | 30
C=CCC1OC[C@H](Cc2ccccc2)N(C[C@H](O)CN(CC2CCCC2)S(=O)(=O)c2ccc(OC)cc2)C1=O (stereo not given in full) |  | 2
C=CC[C@H]1C[C@H](Cc2ccccc2)N(C[C@@H](O)C[C@@H](Cc2ccccc2)C(=O)NC2c3ccccc3C[C@H]2O)C1=O (stereo not given in full) | 0.45 | 
CCOC(=O)CNC(=O)Nc1cccc(C[C@H]2C[C@H](Cc3ccccc3)N(C[C@@H](O)C[C@@H](Cc3ccccc3)C(=O)N[C@@H]3c4ccccc4C[C@H]3O)C2=O)c1 | 0.1 | 
NC(=O)c1cccc(C[C@H]2C[C@H](Cc3ccccc3)N(C[C@@H](O)C[C@@H](Cc3ccc(OCCO)cc3)C(=O)N[C@@H]3c4ccccc4C[C@H]3O)C2=O)c1 | 0.05 | 
N#Cc1ccc(CC2C[C@H](Cc3ccccc3)N(C[C@@H](O)C[C@@H](Cc3ccccc3)C(=O)NC3c4ccccc4C[C@H]3O)C2=O)cc1 (stereo not given in full) | 0.34 | 

More lines, main results first:

Ki [1] [nM] | SMILES | IC50 [2] [nM]
0.2 | CCNC(=O)Nc1cccc(C[C@H]2C[C@H](Cc3ccccc3)N(C[C@@H](O)C[C@@H](Cc3ccccc3)C(=O)NC3c4ccccc4C[C@H]3O)C2=O)c1 (stereo not given in full) | 
0.17 | O=C(NC1c2ccccc2C[C@H]1O)[C@H](Cc1ccccc1)C[C@H](O)CN1C(=O)C(Cc2cccnc2)C[C@@H]1Cc1ccccc1 (stereo in doubt) | 
14 | O=C(NC1c2ccccc2C[C@H]1O)[C@H](Cc1ccccc1)C[C@H](O)CN1C(=O)C(Cc2cccnc2)C[C@@H]1Cc1ccccc1 (single isomer, unassigned; diastereomer 2) | 
0.08 | N#CCOc1cccc(C[C@H]2C[C@H](Cc3ccccc3)N(C[C@@H](O)C[C@@H](Cc3ccccc3)C(=O)NC3c4ccccc4C[C@H]3O)C2=O)c1 (stereo not given in full) | 
0.42 | COC(=O)c1cccc(CC2C[C@H](Cc3ccccc3)N(C[C@@H](O)C[C@@H](Cc3ccccc3)C(=O)NC3c4ccccc4C[C@H]3O)C2=O)c1 (single isomer, unassigned; diastereomer 1) | 
0.09 | NC(=O)Cc1cccc(C[C@H]2C[C@H](Cc3ccccc3)N(C[C@@H](O)C[C@@H](Cc3ccccc3)C(=O)NC3c4ccccc4C[C@H]3O)C2=O)c1 (stereo not given in full) | 
0.1 | NC(=O)c1cccc(C[C@H]2C[C@H](Cc3ccccc3)N(C[C@@H](O)C[C@@H](Cc3ccccc3)C(=O)N[C@@H]3c4ccccc4C[C@H]3O)C2=O)c1 | 
0.05 | O=C(NC1c2ccccc2C[C@H]1O)[C@H](Cc1ccccc1)C[C@H](O)CN1C(=O)C(Cc2cccc(O)c2)C[C@@H]1Cc1ccccc1 (single isomer, unassigned; diastereomer 1) | 
